Data published in patent publication US20200087703A1, “METABOLIC LABELING OF BACTERIAL TEICHOIC ACIDS CELL WALL” (priority 2017, published 2020).

Key:
S. pneumoniae R800 = settings: C-medium without choline, 30 μM
Protocol: FIG. 15. […] In C-medium without choline (*), with 30 μM azidocholine (†) or choline (‡).
(§1) The choice was oriented towards a rapid click reaction involving an azide function carried by the choline and the strained dibenzoannulated cyclooctyne DIBO carrying the fluorophore. […] For subsequent click reaction, fluorescent DIBO offers a compromise between stability and rapidity with a choice of commercially available fluorophores.

S. pneumoniae [1] = settings: grown 4 hours with 30 μM, then 25 μM DIBO Alexa Fluor 5 min
Text: as §1

S. pneumoniae [2] = settings: 15 seconds incubation, then DIBO-ATTOS 488 for 5 min
Protocol: The reaction is stopped by three washes with 1 ml of cold PBS. The bacterium is then re-suspended in 20-40 μl of PBS and observed immediately by fluorescence microscopy.

S. pneumoniae live cells = test: TA metabolic labeling on pneumococcal live cells (CuAAC with coumarin, fluorescence microscopy); type: cell-based, Streptococcus pneumoniae; settings: copper 50 μM, THPTA, 30 min, five independent experiments
Text: FIG. 10. TA metabolic labeling on pneumococcal live cells. A. Detection of metabolically incorporated propargyl-choline in S. pneumoniae living cells after bioorthogonal reaction. (i) and (ii) refer to two different stages of division. Membrane and septal TA labeling are indicated by black and white arrow heads, respectively. Phase contrast and fluorescence images in the presence (left panel) or absence of propargyl-choline (right panel) are shown. Scale bar=1 μm. B. Electron micrographs of pneumococcal cells at division stages (i) and (ii) as shown in A. C.
For bioorthogonal reactions, 10 ml of Cmed-choline and 10 ml of C-medium containing 4 μg/ml of propargyl-choline were inoculated at OD600 nm of 0.05 with aliquots of cells conditioned in C-medium as described above. The growth was pursued at 37° C.-5% CO2 for 3 hours until OD600 nm of 0.2-0.25 was reached, which corresponds to the early exponential growth phase. […]
Pneumococcal cells were transferred to microscope slides and observed using an Olympus BX61 optical microscope equipped with a UPFLN 100× O-2PH/1.3 objective and a QImaging Retiga-SRV 1394 cooled charge-coupled device camera. […] The cells are then sorted by their length value and the fluorescence values are plotted as a heat map. […]

For 1-azidoethyl-choline, the “ability to replace choline for growth” value (S. pneumoniae R800) was “efficiently replaced choline to allow growth”, the “cell surface labeling pattern” value (S. pneumoniae [1]) was “Uniform cell surface labeling” and the “labeling quality after short pulse” value (S. pneumoniae [2]) was “high-quality labeling”.
For `C#CC[N+](C)(C)CCO` [propargyl-choline], the “fluorescent signal ratio propargyl-choline/choline” value (S. pneumoniae live cells) was 4.28±0.8.
